Results: patent US9370182B2, “Antimicrobial peptide and use thereof” (TOAGOSEI CO., LTD., priority 2012, dated 2016)
Where no end group is shown, it is not given here.

Key:
Assay type in all cases: cell-based
E. coli (NIH-JC2) = details: for Antimicrobial activities (MIC in μM) E. coli: NIH-JC2, 24 h
Experimental: (§1) The two bacterial strains (S. aureus, E. coli) were subcultured from storage media to agar plate media (“Mueller Hinton Agar” available from DIFCO), then inoculated into liquid media (“Mueller Hinton broth II” available from DIFCO) and cultured at 30° C. or 37° C. for 24 hours. Subsequently, the aforementioned medium was added to the culture media to dilute and prepare inocula at bacterial concentrations of 2×10^5 cells/mL.
(§2) Antimicrobial activity tests were conducted as follows.
(§3) The peptide-containing solutions prepared to the respective concentrations were aliquoted into 96-well microplates at 20 μL per well. In test sections against the fungus, 80 μL of the MOPS-buffered RPMI1640 medium was added to each well. In test sections against the bacteria, 80 μL of the liquid medium (Mueller Hinton broth II) was added to each well.
(§4) Subsequently, 100 μL of one of the inocula was added to each well and incubation was started in an incubator at 30° C. or 37° C. After 24 hours, the multiplication (growth) of the microorganisms was analyzed by measurements of turbidity (OD600).

S. aureus (209P) = details: for Antimicrobial activities (MIC in μM) S. aureus: 209P, 24 h
Experimental: as §1, §2, §3, §4

C. albicans (NBRC-1594) = details: for Antimicrobial activities (MIC in μM) C. albicans: NBRC-1594, 24 h
Experimental: On the other hand, with respect to the one fungus strain (C. albicans), the surface of a slant culture was washed with a physiological saline containing 0.1% Tween® 80 to prepare a conidial suspension. The suspension was filtered with a Falcon® cell strainer and diluted with a MOPS-buffered RPMI1640 medium to prepare an inoculum at a fungus concentration of 2×10^4 cells/mL.
as §2, §3, §4

[1] = summary of Table 2, all microorganism strains

Sequence | Antimicrobial activities (MIC in μM) E. coli (E. coli (NIH-JC2)) [µM] | Antimicrobial activities (MIC in μM) S. aureus (S. aureus (209P)) [µM] | Antimicrobial activities (MIC in μM) C. albicans (C. albicans (NBRC-1594)) [µM] | Antimicrobial activity in words, E. coli (E. coli (NIH-JC2); [1]) | Antimicrobial activity in words, S. aureus (S. aureus (209P); [1]) | Antimicrobial activity in words, C. albicans (C. albicans (NBRC-1594); [1])
MAATGTAAAAATGKLLVLLLLGLTAPAAA [Sample 6] | 16 | 8 | 16 |  |  | 
MAATGTAAAAATGRLLLLLLVGLTAPALA [Sample 5] | 16 | 8 | 16 |  |  | 
MGPASPAARGLSRRPGQPPLPLLLPLLLLLLRAQPAIG [Sample 3] | 16 | 4 | 16 |  |  | 
MGPTSPAARGQGRRWRPPLPLLLPLSLLLLRAQLAVG [Sample 4] | 16 | 4 | 16 |  |  | 
MLPGLALLLLAAWTARA [Sample 1] | 32 | 16 | 32 |  |  | 
MLPSLALLLLAAWTVRA [Sample 2] | 32 | 16 | 32 |  |  | 
TLHQQCIRVLKNNID [Sample 7, reference compound] | >256 | >256 | >256 | no antimicrobial activities were observed | no antimicrobial activities were observed | no antimicrobial activities were observed
